This note sets out measurements from publication PMC12040275, “Fusaric acid-mediated S-glutathionylation of MaAKT1 channel confers the virulence of Foc TR4 to banana” (PLOS Pathogens, 2025).

For assay [1], the target named is T1, MaAKT1 (Musa acuminata, UniProt A0A804HWY8).
T1 construct: synthesized cDNA in pcDNA 6/His A, expressed in HEK-293 cells; patch-clamp
The experiment in a line: whole-cell patch clamp, HEK-293. The format is cell-based. The note with it: HEK293.

In assay [2] the target is T1, MaAKT1. Kind of assay: patch clamp, giant inside-out patches from HEK-293. It is filed as biochemical. The note with it: covalent (cysteine thiol oxidation); applied to cytosolic side; -194 mV.

The structures appear in SMILES notation.

T1 sequence (A0A804HWY8 1-891): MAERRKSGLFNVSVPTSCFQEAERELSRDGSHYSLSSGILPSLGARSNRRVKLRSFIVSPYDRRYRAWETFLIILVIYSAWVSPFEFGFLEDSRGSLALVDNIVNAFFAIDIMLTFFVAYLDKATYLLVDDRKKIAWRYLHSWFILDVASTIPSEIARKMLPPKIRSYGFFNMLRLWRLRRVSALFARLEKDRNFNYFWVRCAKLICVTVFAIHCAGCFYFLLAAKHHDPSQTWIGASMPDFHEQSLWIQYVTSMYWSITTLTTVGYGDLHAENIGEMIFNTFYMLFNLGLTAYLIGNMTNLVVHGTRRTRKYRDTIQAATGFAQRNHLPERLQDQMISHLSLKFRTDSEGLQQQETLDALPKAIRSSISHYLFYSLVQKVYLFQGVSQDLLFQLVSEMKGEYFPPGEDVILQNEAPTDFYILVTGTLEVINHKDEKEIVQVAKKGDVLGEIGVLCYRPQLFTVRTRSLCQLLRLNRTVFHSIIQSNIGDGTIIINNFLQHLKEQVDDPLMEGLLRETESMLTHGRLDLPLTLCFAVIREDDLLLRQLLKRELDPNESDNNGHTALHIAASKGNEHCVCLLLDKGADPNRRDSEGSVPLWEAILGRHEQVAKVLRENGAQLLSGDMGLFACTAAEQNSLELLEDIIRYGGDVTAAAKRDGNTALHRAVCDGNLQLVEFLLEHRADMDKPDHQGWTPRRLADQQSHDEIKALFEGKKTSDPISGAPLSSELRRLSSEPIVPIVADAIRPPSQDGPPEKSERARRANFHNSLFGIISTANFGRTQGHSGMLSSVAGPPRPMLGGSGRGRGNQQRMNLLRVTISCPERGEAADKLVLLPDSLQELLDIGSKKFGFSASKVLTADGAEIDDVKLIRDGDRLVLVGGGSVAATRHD

At MaAKT1 [1], `c1ccc(SSc2ccccn2)nc1` [2-DTP, 2,2-Dithiodipyridine] showed an inhibition at 50 µM of 61.5 ± 6.66%.
Same read-out and setting: for `O=[N+]([O-])c1ccc(SSc2ccc([N+](=O)[O-])cn2)nc1` [DTNP, 2,2’-dithiobis-5-nitropyridine] the value was 60 ± 9.89%.
As for `O=C(O)c1cc(SSc2ccc([N+](=O)[O-])c(C(=O)O)c2)ccc1[N+](=O)[O-]` [DTNB, 5,5-dithiobis-2-nitrobenzoic acid], the “patch clamp, giant inside-out patches from HEK-293” value at MaAKT1 [2] was “low concentration of DTNB significantly inhibited MaAKT1”.
